Among the data in the NIST ThermoML archive (doi:10.1016/j.jct.2018.03.001) are molar enthalpy values, retold here.

The data set in a line: molar enthalpy of vaporization or sublimation. The conditions noted are these: 298.15 K; Liquid; Static calorimetry.

Numbers after ± are expanded uncertainties.

On to `NCCN1CCOCC1` [4-morpholineethanamine], for which the molar enthalpy was found to be 15.3 ± 0.932 kcal/mol.

As for `NCCCN1CCOCC1` [N-(3-aminopropyl)morpholine], the molar enthalpy stood at 14.8 ± 0.86 kcal/mol.
